Reference: ChEMBL document CHEMBL4602719, “Discovery of Potent, Selective, and Orally Bioavailable Inhibitors of USP7 with In Vivo Antitumor Activity” (J Med Chem, 2020)
pEC50, pIC50: −log10 of the molar value.

Legend:
[1] = target: OTU domain-containing protein 6A (Homo sapiens, UniProt Q7L8S5); test: Inhibition of human His6-tagged OTUD6A expressed in Escherichia coli assessed as cleavage of Ubiquitin-Rhodamine110-glycine to Ubiquitin and Rhodamine110-glycine using Ubiquitin-Rhodamine110-glycine as substrate by fluorescence based analysis
[2] = target: Ubiquitin carboxyl-terminal hydrolase 9X (Homo sapiens, UniProt Q93008); test: Inhibition of human GST-tagged USP9X CD (1554 to 1995 residues) expressed in Escherichia coli assessed as cleavage of Ubiquitin-Rhodamine110-glycine to Ubiquitin and Rhodamine110-glycine using Ubiquitin-Rhodamine110-glycine as substrate by fluorescence based analysis
[3] = target: Voltage-gated inwardly rectifying potassium channel KCNH2 (Homo sapiens, UniProt Q12809); test: Inhibition of human ERG
[4] = target: OTU domain-containing protein 3 (Homo sapiens, UniProt Q5T2D3); test: Inhibition of human GST-tagged OTUD3 expressed in Escherichia coli assessed as cleavage of Ubiquitin-Rhodamine110-glycine to Ubiquitin and Rhodamine110-glycine using Ubiquitin-Rhodamine110-glycine as substrate by fluorescence based analysis
[5] = target: OTU domain-containing protein 7B (Homo sapiens, UniProt Q6GQQ9); test: Inhibition of cezanne (unknown origin)
Ataxin-3-like protein = Ataxin-3-like protein (Homo sapiens, UniProt Q9H3M9); test: Inhibition of human 6His-tagged Ataxin-3L expressed in Escherichia coli assessed as cleavage of Ubiquitin-Rhodamine110-glycine to Ubiquitin and Rhodamine110-glycine using Ubiquitin-Rhodamine110-glycine as substrate by fluorescence based analysis
Ataxin-3-like protein, sequence (Q9H3M9 whole entry): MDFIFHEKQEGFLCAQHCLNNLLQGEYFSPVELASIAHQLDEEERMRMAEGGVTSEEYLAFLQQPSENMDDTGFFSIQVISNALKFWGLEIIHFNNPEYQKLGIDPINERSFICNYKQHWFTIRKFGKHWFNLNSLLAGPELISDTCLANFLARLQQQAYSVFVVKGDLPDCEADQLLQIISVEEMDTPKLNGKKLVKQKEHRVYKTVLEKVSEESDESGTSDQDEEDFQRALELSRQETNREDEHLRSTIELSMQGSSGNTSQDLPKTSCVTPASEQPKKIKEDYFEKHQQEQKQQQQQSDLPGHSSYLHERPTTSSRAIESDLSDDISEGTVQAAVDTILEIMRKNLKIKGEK

[6] = target: Ubiquitin carboxyl-terminal hydrolase 7 (Homo sapiens, UniProt Q93009); test: Inhibition of USP7 in human RKO cells transfected with p53 luciferase reporter vector assessed as increase in p53-dependent luciferase activity measured after 18 hrs by BrightGlo luciferase assay; format: cell-based
Ubiquitin carboxyl-terminal hydrolase 7, sequence (Q93009 whole entry): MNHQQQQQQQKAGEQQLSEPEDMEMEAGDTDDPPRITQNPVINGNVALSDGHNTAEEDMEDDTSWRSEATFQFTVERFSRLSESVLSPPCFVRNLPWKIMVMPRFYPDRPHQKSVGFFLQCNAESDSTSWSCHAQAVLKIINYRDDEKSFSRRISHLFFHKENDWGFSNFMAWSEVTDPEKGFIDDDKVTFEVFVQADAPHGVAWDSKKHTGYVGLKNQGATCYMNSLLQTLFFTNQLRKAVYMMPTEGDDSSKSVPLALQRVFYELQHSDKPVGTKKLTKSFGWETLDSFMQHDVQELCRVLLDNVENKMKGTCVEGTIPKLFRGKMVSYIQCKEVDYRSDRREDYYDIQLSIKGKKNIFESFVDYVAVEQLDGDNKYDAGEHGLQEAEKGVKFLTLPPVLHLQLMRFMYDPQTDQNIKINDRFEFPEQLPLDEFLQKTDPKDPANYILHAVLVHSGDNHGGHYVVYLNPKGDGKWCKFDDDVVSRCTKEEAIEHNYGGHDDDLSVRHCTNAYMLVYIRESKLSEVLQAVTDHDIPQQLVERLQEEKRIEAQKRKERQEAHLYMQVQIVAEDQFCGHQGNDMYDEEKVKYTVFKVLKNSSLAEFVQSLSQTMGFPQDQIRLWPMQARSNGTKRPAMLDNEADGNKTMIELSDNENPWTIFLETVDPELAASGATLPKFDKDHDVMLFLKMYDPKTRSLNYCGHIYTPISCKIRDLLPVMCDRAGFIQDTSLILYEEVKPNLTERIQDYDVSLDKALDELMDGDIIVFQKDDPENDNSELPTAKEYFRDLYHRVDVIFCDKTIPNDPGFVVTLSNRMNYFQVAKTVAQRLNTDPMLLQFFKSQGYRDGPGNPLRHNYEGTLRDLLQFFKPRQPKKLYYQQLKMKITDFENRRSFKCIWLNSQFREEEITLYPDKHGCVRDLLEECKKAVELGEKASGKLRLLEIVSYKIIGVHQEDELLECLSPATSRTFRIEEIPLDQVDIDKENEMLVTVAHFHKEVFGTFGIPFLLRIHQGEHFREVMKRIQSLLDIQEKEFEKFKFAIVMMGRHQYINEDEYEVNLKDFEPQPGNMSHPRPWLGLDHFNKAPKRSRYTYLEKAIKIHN

[7] = target: Ubiquitin carboxyl-terminal hydrolase 27 (Homo sapiens, UniProt A6NNY8); test: Inhibition of human DAC-tagged USP27X expressed in Escherichia coli assessed as cleavage of […]-linked di-ubiquitin to mono-ubiquitin using di-ubiquitin as substrate by mass spectrometry
Ubiquitin carboxyl-terminal hydrolase 27, sequence (A6NNY8 whole entry, canonical isoform): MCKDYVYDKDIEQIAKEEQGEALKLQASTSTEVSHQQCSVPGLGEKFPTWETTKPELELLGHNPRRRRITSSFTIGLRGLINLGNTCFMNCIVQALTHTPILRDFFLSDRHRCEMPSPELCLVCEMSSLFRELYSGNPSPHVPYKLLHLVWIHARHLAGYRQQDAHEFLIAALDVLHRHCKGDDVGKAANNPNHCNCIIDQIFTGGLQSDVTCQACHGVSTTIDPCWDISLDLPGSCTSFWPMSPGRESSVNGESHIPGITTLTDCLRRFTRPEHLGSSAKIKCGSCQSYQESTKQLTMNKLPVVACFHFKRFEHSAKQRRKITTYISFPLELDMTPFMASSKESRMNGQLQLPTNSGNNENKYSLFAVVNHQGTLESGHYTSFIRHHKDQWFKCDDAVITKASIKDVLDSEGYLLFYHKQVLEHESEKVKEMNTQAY

[8] = target: Ubiquitin carboxyl-terminal hydrolase 15 (Homo sapiens, UniProt Q9Y4E8); test: Inhibition of human USP15 isoform 2 expressed in Escherichia coli assessed as cleavage of Ubiquitin-Rhodamine110-glycine to Ubiquitin and Rhodamine110-glycine using Ubiquitin-Rhodamine110-glycine as substrate by fluorescence based analysis
[9] = target: Ubiquitin carboxyl-terminal hydrolase BAP1 (Homo sapiens, UniProt Q92560); test: Inhibition of human GST-tagged BAP1 expressed in Escherichia coli assessed as cleavage of Ubiquitin-Rhodamine110-glycine to Ubiquitin and Rhodamine110-glycine using Ubiquitin-Rhodamine110-glycine as substrate by fluorescence based analysis
Cytochrome P450 3A4 = Cytochrome P450 3A4 (Homo sapiens, UniProt P08684); test: Inhibition of CYP3A4 (unknown origin); format: ADME
Cytochrome P450 3A4, sequence (P08684 whole entry): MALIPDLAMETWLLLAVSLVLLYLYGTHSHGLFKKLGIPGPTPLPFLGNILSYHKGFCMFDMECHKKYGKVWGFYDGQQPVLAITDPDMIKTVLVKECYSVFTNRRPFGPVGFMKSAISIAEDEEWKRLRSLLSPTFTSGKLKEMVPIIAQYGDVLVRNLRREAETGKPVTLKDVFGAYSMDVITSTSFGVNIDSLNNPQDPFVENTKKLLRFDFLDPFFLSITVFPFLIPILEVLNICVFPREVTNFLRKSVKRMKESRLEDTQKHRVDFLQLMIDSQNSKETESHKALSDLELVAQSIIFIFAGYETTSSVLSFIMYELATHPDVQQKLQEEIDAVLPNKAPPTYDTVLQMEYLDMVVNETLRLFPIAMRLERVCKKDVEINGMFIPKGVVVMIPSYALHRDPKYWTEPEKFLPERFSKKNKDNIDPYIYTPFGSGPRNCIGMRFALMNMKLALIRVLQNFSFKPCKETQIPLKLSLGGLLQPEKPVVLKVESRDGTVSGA

[10] = target: Ubiquitin carboxyl-terminal hydrolase 11 (Homo sapiens, UniProt P51784); test: Inhibition of USP11 (unknown origin)
[11] = target: Ubiquitin carboxyl-terminal hydrolase 25 (Homo sapiens, UniProt Q9UHP3); test: Inhibition of human GST-tagged USP25 expressed in Escherichia coli assessed as cleavage of Ubiquitin-Rhodamine110-glycine to Ubiquitin and Rhodamine110-glycine using Ubiquitin-Rhodamine110-glycine as substrate by fluorescence based analysis
Ubiquitin carboxyl-terminal hydrolase 25, sequence (Q9UHP3 whole entry, the tested form may be a part): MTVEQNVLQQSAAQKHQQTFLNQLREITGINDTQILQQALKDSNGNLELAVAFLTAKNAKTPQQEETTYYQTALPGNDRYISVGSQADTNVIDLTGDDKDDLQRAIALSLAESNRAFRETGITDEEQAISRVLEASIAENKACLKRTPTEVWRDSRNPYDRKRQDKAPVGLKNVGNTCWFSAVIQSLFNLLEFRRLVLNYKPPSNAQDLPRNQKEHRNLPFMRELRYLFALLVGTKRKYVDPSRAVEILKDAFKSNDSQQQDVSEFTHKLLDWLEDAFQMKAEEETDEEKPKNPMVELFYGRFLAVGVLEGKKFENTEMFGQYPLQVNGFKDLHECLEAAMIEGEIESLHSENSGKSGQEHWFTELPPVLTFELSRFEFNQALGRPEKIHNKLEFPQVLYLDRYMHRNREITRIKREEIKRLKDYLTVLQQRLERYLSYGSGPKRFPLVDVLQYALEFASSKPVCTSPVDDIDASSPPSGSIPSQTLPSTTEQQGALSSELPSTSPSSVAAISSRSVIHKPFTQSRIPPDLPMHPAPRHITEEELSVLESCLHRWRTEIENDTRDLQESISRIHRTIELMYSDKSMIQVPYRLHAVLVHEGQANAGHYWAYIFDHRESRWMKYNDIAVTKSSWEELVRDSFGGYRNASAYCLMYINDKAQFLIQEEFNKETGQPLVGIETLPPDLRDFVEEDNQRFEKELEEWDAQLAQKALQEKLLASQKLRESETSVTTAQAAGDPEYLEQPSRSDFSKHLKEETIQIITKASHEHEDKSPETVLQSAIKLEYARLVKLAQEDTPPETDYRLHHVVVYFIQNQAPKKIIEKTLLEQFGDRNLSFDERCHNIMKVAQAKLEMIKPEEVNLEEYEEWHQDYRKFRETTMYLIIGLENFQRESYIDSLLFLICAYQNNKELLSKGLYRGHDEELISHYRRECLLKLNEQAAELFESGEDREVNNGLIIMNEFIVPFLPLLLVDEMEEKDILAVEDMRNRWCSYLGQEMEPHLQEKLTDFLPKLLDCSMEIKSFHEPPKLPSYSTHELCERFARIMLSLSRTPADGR

[12] = target: Ubiquitin carboxyl-terminal hydrolase 36 (Homo sapiens, UniProt Q9P275); test: Inhibition of human GST-tagged USP36 CD (81 to 461 residues) expressed in Escherichia coli assessed as cleavage of Ubiquitin-Rhodamine110-glycine to Ubiquitin and Rhodamine110-glycine using Ubiquitin-Rhodamine110-glycine as substrate by fluorescence based analysis
Ubiquitin carboxyl-terminal hydrolase 36, sequence (Q9P275 whole entry, the tested form may be a part): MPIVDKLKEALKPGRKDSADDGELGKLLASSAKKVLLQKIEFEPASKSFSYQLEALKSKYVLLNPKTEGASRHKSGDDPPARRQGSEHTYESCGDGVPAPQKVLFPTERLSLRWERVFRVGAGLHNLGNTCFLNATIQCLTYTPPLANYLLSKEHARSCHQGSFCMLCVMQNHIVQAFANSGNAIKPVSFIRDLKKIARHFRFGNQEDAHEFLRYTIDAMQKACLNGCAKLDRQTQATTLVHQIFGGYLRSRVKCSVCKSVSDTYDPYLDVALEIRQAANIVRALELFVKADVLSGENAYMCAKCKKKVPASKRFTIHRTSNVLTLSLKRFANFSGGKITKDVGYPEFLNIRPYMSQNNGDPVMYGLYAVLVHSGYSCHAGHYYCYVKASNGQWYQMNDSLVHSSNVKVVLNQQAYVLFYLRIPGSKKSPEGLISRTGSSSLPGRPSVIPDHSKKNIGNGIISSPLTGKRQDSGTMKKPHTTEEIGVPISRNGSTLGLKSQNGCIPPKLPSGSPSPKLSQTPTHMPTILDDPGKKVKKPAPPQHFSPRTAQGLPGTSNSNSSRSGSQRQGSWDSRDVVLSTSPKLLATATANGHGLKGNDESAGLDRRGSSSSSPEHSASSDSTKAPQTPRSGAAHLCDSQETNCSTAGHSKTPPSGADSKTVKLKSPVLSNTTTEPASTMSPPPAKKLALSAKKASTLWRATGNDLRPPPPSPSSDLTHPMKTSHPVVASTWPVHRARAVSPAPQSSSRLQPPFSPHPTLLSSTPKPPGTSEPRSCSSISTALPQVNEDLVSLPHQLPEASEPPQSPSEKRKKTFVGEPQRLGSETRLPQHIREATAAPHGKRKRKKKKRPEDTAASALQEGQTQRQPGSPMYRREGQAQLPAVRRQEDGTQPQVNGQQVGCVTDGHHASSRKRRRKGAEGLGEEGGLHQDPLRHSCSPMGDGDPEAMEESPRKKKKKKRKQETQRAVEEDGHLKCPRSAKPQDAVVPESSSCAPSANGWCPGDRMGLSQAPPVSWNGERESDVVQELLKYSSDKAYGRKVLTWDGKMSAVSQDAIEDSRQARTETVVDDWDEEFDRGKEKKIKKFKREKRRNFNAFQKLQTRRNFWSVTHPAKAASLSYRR

[13] = target: Ubiquitin carboxyl-terminal hydrolase isozyme L5 (Homo sapiens, UniProt Q9Y5K5); test: Inhibition of human GST-tagged UCHL5 expressed in Escherichia coli assessed as cleavage of Ubiquitin-Rhodamine110-glycine to Ubiquitin and Rhodamine110-glycine using Ubiquitin-Rhodamine110-glycine as substrate by fluorescence based analysis
Ubiquitin carboxyl-terminal hydrolase isozyme L5, sequence (Q9Y5K5 whole entry, the tested form may be a part): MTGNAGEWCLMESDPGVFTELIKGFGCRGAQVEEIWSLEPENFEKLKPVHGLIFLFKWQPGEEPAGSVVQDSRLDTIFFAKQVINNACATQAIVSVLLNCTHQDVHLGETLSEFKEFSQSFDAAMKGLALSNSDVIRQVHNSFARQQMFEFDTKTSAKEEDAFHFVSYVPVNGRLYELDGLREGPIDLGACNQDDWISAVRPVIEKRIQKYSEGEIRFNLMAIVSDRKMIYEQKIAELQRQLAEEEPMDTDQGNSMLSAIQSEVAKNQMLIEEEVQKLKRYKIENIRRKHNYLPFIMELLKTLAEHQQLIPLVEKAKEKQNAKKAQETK

[14] = target: Deubiquitinating protein VCPIP1 (Homo sapiens, UniProt Q96JH7); test: Inhibition of human GST-tagged VCPIP CD (25 to 561 residues) expressed in Escherichia coli assessed as cleavage of Ubiquitin-Rhodamine110-glycine to Ubiquitin and Rhodamine110-glycine using Ubiquitin-Rhodamine110-glycine as substrate by fluorescence based analysis

- pIC50 [1]: < 5.00
- pIC50 [2]: < 5.00
- pIC50 [4]: < 5.00
- pIC50 [5]: < 5.00
- pEC50 [6]: 7.19
- pIC50 [7]: < 5.00
- pIC50 [8]: < 5.00
- pIC50 [9]: < 5.00
- INH (Cytochrome P450 3A4): 6.2 µM
- pIC50 [10]: < 5.00
- pIC50 [11]: < 5.00
- pIC50 [12]: < 5.00
- pIC50 [13]: < 5.00
- pIC50 [14]: < 5.00
SMILES: Cc1cc(Cl)cc(-c2ccnc3cc(CN4C(=O)C5C(C4=O)C5(C)C)sc23)c1O[C@@H]1CCNC[C@@H]1C (stereo partly specified)
- pIC50 [3]: 6.40
- pIC50 (Ataxin-3-like protein): < 5.00
